# From US20250332096A1, “BEVERAGE FORMULATION AND METHOD OF PROMOTING CELLULAR HYDRATION BY ENHANCING INTRACELLULAR PERMEATION” (Eastpond Laboratories Limited, priority 2024, published 2025)
# What was measured:
# [1] = tested on: Wheat seeds (Triticum aestivum); assay: Wheat seed germination; type: in vivo; details: 0.5% w/w in USA I water
# Description: Wheat seeds (Triticum aestivum) were germinated using USA I, USA II, and BP I waters described for Example 2. Germination rate using un-supplemented (control) water was compared to that with the same water variously supplemented with a cyclodextrin component, and/or a bioactive agent, as an active component of cellular hydration. For each condition, ten seeds were placed in continuous water contact in a Petri-type dish kept at 25 C in 12 hr light/dark cycles. Photometric images were recorded on days 1 to 6 after seeding. The percentage of seeds germinated was calculated and compared as a function of time and of the applied additive concentrations.
# Water samples for seed germination were used alone with no additive, or containing cyclodextrins, or containing clathrate inclusion complexes of cyclodextrin with L-arginine or with nicotinamide (both obtained from Sigma Chemical Co.; St. Louis, MO), or with L-carnitine (from Lonza AG; Switzerland). […] Additive solutions were prepared fresh on the day of germination start.
# Parent cyclodextrins α-cyclodextrin (ACD), β-cyclodextrin (BCD), and γ-cyclodextrin (GCD), were obtained from Wacker Chemie (Munich, Germany). The following derivatized cyclodextrins were obtained from Cyclolab Ltd. (Budapest, Hungary): hydroxypropylated-beta-cyclodextrin (DS-3)(HPBCD), carboxymethylated-β-cyclodextrin (DS-3.5)(CMBCD), 2-hydroxy-3-N,N,N-trimethylamino)propyl-β-cyclodextrin chloride (DS-3.6)(QABCD).
# Germination kinetics in control and additive-modified water under identical conditions were quantified as the percentage of the seeds having a sprout. Each determination consisted of 100 seeds for each parameter. Results are reported in Table 5, below, and in FIGS. 11-13. • A) Cyclodextrin/L-Arg Inclusion Complex Increases Seed Germination.
# [2] = Density measurements of test solutions; type: physicochemical; details: Tap water
# Description: The current study further manifests the density measurements in a cyclodextrin concentration dependent manner.
# Water samples used were bottled water and tap water; wherein the tap water comprises the following impurities and properties: Free active chlorine (0.18 mg/1), Chloride (24 mg/1), Iron (6 μg/1), Manganese (2 μg/1), Nitrate (9 mg/1), Nitrite (<0.03 mg/1), Ammonium (<0.04 mg/1), Hardness of water (122 mg/l CaO), Conductivity (442 μS/cm) and pH 8. Purified water was produced by removal of dissolved ions by Merck/Millipore Synergy® Water Purification System at Cyclolab. The water quality produced Type 1 water (18.2 MΩ·cm at 25° C. ultrapure water) from pretreated water.
# (§1) 1:1 mol/mol stoichiometry complexes were prepared for the experiment. Nicotinic acid/alpha-CD complex was prepared by dissolving 11.22 g nicotinic acid and 98.63 g alpha-CD (89.66 g on dry basis) in 700 ml purified water. Nicotinamide/alpha-CD complex was prepared by dissolving 5.57 g nicotinamide and 49.3 g alpha-CD (44.4 g on dry basis) in 350 ml purified water and L-arginine/alpha-CD complex was prepared by dissolving 15.18 g L-arginine and 94.26 g alpha-CD (85.69 g on dry basis) in 700 ml purified water. Further, for all the three complexes, the liquid was frozen in dry ice bath and lyophilized. The dry lyophilizate was ground and sieved.
# (§2) Clarity, pH, conductivity, density, viscosity, turbidity, surface tension and osmolality were determined in solutions prepared with purified water. […]
# However, it may not be established exactly which ionic species (Mg2+, Ca2+, Na+) causes this perturbation.
# [3] = Conductivity of test solutions; type: physicochemical; details: purified water
# Description: as §1, §2
# [4] = tested on: C. elegans; assay: C. elegans lifespan Test A (observations carried out earlier); type: in vivo; details: day 15, 0.1%, 50 worms per group
# Description: C. elegans study performed for the present disclosure is a follow-up and repetition of the observations carried out earlier (referred as Test A here). The results of the current C. elegans study (Test B) were recorded with higher number of animals compared to the Test A (50 worms per treated groups versus 130 worms per groups). Nematodes were maintained and propagated on Nematode Growth Medium—(NGM) containing plates and fed with Escherichia coli OP50 bacteria. The C. elegans strain used in this study is Bristol (N2) as wild-type.
structure (smiles),measurement,setting,value
"OC[C@H]1O[C@@H]2O[C@H]3[C@H](O)[C@@H](O)[C@@H](O[C@H]4[C@H](O)[C@@H](O)[C@@H](O[C@H]5[C@H](O)[C@@H](O)[C@@H](O[C@H]6[C@H](O)[C@@H](O)[C@@H](O[C@H]7[C@H](O)[C@@H](O)[C@@H](O[C@H]1[C@H](O)[C@H]2O)O[C@@H]7CO)O[C@@H]6CO)O[C@@H]5CO)O[C@@H]4CO)O[C@@H]3CO [Alpha Cyclodextrin, α-cyclodextrin]","wheat seed germination, percentage of the seeds having a sprout",[1]; day 0,0%
same,"wheat seed germination, percentage of the seeds having a sprout",[1]; day 1,11%
same,"wheat seed germination, percentage of the seeds having a sprout",[1]; day 2,18%
same,"wheat seed germination, percentage of the seeds having a sprout",[1]; day 3,68%
same,"wheat seed germination, percentage of the seeds having a sprout",[1]; day 4,92%
same,Density (at 22 C.),[2]; 0.05%,0.9992 ± 0.007 g/cm³
same,Density (at 22 C.),[2]; 0.10%,0.9994 ± 0.004 g/cm³
same,Density (at 22 C.),[2]; 1.00%,1.002 ± 0.007 g/cm³
same,Density (at 22 C.),[2]; 2.00%,1.009 ± 0.005 g/cm³
same,Conductivity,[3]; 0.05%,35.3 μS · cm^−1
same,Conductivity,[3]; 0.10%,39.0 μS · cm^−1
same,Fraction of worms alive,[4],25%
